According to ChEMBL document CHEMBL5223115, “A guanidinium group is an effective mimic of the tertiary carbocation formed by isopentenyl diphosphate isomerase” (Bioorg Med Chem Lett, 2022):

Key:
[1] = target: T1, Isopentenyl-diphosphate Delta-isomerase (Escherichia coli (strain K12), UniProt Q46822); assay: Inhibition of Escherichia coli IPP isomerase
T1 sequence (Q46822 whole entry): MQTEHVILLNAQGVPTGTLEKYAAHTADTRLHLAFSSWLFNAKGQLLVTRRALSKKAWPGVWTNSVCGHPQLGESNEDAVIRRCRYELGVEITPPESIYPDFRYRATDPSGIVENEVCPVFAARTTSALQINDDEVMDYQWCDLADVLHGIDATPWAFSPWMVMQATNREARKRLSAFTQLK

[2] = target: T1, Isopentenyl-diphosphate Delta-isomerase; assay: Binding affinity to Escherichia coli IPP isomerase assessed as inhibition constant
[3] = Binding affinity to IPP isomerase (unknown origin) assessed as dissociation constant; parameters: species or system Homo sapiens
[4] = target: T1, Isopentenyl-diphosphate Delta-isomerase; assay: Competitive inhibition of Escherichia coli IPP isomerase assessed as inhibition constant by Lineweaver-burk plot analysis

| Compound | IC50 [1] [µM] | Ki [2] [µM] | Kd [3] [µM] | Ki [4] [µM] |
| --- | --- | --- | --- | --- |
| N=C(N)NCCC(=O)NO | 670 |  |  |  |
| NC(N)=NCP(=O)(O)CP(=O)(O)O |  | 0.12 | 1.2 |  |
| CS(=O)(=O)NC(=O)CCNC(=N)N | 1200 |  |  |  |
| N=C(N)NCCP(=O)(O)CP(=O)(O)O | 0.7 | 0.129 |  | 0.129 |
| CN(C)CCCP(=O)(O)CP(=O)(O)O | 33 |  |  |  |
| CN(C)CCCC(=O)NS(C)(=O)=O | > 5000 |  |  |  |
